Experimental data: patent US7989446B2, “4-amino 5-cyanopyrimidine derivatives” (Otsuka Pharmaceutical Co., Ltd., priority 2004, dated 2011)

Assays:
A1 receptor = target: T1, A1 receptor (Rattus norvegicus, UniProt P25099); experiment: Adenosine A1 agonistic action ([35S]GTPγS binding, rat cerebral cortex cell membrane); format: biochemical, male Wistar rats; settings: percentage to 100% of CPA 1 μM
T1 construct: cerebral cortex of male Wistar rats (Charles River Japan, Inc) was extirpated; from tissue; host or cells: cerebral cortex of male Wistar rats, cell membrane preparation
T1 sequence (P25099 1-326): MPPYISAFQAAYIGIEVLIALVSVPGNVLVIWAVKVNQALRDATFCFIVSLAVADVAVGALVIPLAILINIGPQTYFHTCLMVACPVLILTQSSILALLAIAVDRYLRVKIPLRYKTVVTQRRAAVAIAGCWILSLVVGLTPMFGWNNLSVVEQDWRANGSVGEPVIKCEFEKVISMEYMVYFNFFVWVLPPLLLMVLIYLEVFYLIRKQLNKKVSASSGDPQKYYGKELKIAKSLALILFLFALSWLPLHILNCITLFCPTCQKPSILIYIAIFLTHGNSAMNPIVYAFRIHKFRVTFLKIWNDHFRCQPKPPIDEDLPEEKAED
Experimental: (2) Adenosine A1 Agonistic Action
The test was carried out as mentioned below with reference to the method disclosed in the literature (Shryock J. C. et al., Molecular Pharmacology, (1998) 53, 886-893; Ito H. et al., European Journal of Pharmacology, (1999) 365, 309-315). That is, cerebral cortex of male Wistar rats (Charles River Japan, Inc) was extirpated, thereto Tris buffer (50 mM Tris-HCl: pH 7.4) was added, it was homogenized, and then centrifuged (1000×g, 10 min). The supernatant was taken, and centrifuged (20,000×g, 20 min). After removing off the supernatant, the precipitate was suspended in Tris buffer, and recentrifuged (20,000×g, 20 min). After removing off the supernatant, the precipitate was suspended in Tris buffer including 2 units/mL ADA (adenosine deaminase) and reserved at −80° C. until used as a liquid preparation of cell membrane for the following tests.
The above liquid preparation of cell membrane in an amount corresponding to 10 μg of cell membrane was added to Tris-buffer comprising 5 mM of MgCl2, 1 mM of EDTA, 1 mM of dithiothreitol, 100 mM of NaCl, 0.01 mM of GDP (guanosine diphosphate), 5 mg/mL of BSA and 2 units/mL of ADA and the mixture was incubated at 25° C. for 30 minutes. Additionally, [^35S]GTPγS (Guanosine 5′-[γ-thio]triphosphate) (the final concentration: 0.4 nM) and the test compound of the given concentration (which was calculated based on the final concentration of the test compound) were added to the mixture and the resulting mixture was incubated at 25° C. for 45 minutes. The reaction mixture was filtrated through a glass fiber filter (unifilter-96 GF/B, Perkin Elmer Life Sciences) to quench reaction. The filter was washed 5 times with ice-cooled Tris-buffer including 5 mM MgCl2. The radioactivity of the filter was measured with Top count NXT(Perkin Elmer Life Sciences). The nonspecific binding was shown as the binding activity of [^35S]GTPγS in the presence of 0.01 mM GTPγS.
The activity (%, A1 agonistic action) of each test compound was calculated on the basis of the test result ([^35S]GTPγS binding activity) derived with 1 μM of CPA (N^6-Cyclopentyladenosine, Sigma, code C-8031) in control which was counted as 100%.

[1] = target: T2, adenosine A2a receptor (Human) (Homo sapiens, UniProt P29274); experiment: c-AMP generating action in cell expressing adenosine A2a receptor; format: cell-based; settings: HEK293 cell expressing human A2a; 100% = c-AMP caused by 1 μM CGS-21680; read-out: A2a Agonistic Action (EC50)
T2 construct: host or cells: HEK293
T2 sequence (P29274 whole entry): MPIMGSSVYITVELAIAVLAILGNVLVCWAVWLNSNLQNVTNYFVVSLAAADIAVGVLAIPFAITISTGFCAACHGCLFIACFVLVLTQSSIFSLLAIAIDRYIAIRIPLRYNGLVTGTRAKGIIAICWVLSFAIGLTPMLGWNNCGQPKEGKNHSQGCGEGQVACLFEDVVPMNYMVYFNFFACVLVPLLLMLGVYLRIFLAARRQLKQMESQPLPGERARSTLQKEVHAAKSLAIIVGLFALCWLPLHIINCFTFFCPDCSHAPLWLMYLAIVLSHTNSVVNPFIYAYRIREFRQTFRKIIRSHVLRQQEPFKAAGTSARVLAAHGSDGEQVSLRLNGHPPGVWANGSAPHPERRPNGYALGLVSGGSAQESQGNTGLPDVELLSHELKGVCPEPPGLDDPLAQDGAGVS
Experimental: (1) c-AMP Generating Action in Cell Expressing Adenosine A2a Receptor
The test was carried out as mentioned below with reference to the method disclosed in the reference (Klotz k. N. et al., Naunyn-Schmiedeberg's Arch. Pharmacol., (1998) 357, 1-9; Shryock J. C. et al., Molecular Pharmacology, (1998) 53, 886-893).
As to the cell, HEK293 cell expressing adenosine A2a receptor (Human) (PerkinElmer Life Sciences, Code No. RBHA2AC) was used.
As to the culture medium, Dulbecco's modified Eagles medium (DMEM) including 10% FBS (Fetal bovine serum) and 1 mM of sodium pyruvate was used.
The cell was placed on 96 well plate (1×10^5/well), and cultured overnight. After removing off the supernatant, to each well, 0.1 ml of DMEM (without FBS) containing 20 mM HEPES, 0.1 mM of IBMX (3-isobutyl-1-methylxanthine) and 2 unit/mL adenosine deaminase was added, and they were incubated at 37° C. for 30 minutes. To each well, 0.1 ml of the culture medium including the DMSO solution of the test compound in an appropriate concentration was added and they were incubated for additional 30 minutes. After removing off the supernatant, the cytolytic solution was added to quench the reaction. The amount of c-AMP in each well was measured by using the c-AMP enzyme immunoassay (EIA) system (Amersham Biosciences, Code No. RPN225).
The same assay was repeated using CGS-21680 (2-p-carboxyethyl)phenethylamino-5′-N-ethylcarboxamidoadenosine hydrochloride, (Sigma, code C141) as reference compound. The amount of resultant c-AMP in the medium, caused by 1 μM of reference compound, was defined to be 100%. A concentration of assayed compound in the medium, producing 50% c-AMP amounts, was calculated to be EC50 value.

[2] = test system: Intraocular Pressure in Rabbit; experiment: Measuring test for intraocular pressure in rabbit; format: in vivo, Female New Zealand white rabbits; settings: mean±standard error
Experimental: (3) Measuring Test for Intraocular Pressure in Rabbit
The test compounds were dissolved in 10 mM of phosphate buffer (pH 7.5) (hereinafter, referred to as “vehicle of ophthalmic preparation”), and they were instilled in a given concentration. In addition, the compounds insoluble in that concentration was used as a suspension. Female New Zealand white rabbits (KITAYAMA LABES Co., Ltd.) whose weights were 2.0-4.0 kg were used.
The measurement of the intraocular pressure was carried out using Pneumatonometer (Model 30 Classic, Mentor company) without anesthesia. In addition, before the measurement of the intraocular pressure, the surface anesthesia with 0.4% oxybuprocaine hydrochloride (“Benoxil” 0.4% ophthalmic solution, Santen Pharmaceutical Co., Ltd.) was carried out.
The animals whose intraocular pressure was stable before instillation were selected, and these animals were divided to every 4 animal in each one group, 50 μL of eye drops including each the test compound was administered to one-sided eye and vehicle was administered to contralateral eye as the control eye. The measurement of intraocular pressure was carried out before instillation and after 0.5, 1, 2, 3, 4 and 6 hours from instillation. The effect on the intraocular pressure was shown as the difference from pre-instillation (ΔIOP, mmHg, mean±standard error). The following Tables 14 and 15 show the results of Control Compounds A and B used as 1% suspensions which are the same as in the pharmacological test (1).
The animals were pretreated as mentioned above, and among them animals whose intraocular pressure was stable before instillation were selected, and these animals were divided to every 5 to 8 animal in each one group. Every two group was used for each of the test compounds. The test compound was administered unilaterally to the eye of the test group rabbit and the intraocular pressure was measured. The vehicle was administered unilaterally to the eye of the control group rabbit and the intraocular pressure was measured. As mentioned above, the measurement of intraocular pressure was carried out before instillation and after 0.5, 1, 2, 3, 4 and 6 hours from instillation, and the effect on the intraocular pressure was shown as the difference from pre-instillation (ΔIOP, mmHg, mean±standard error).

SMILES: CC(=O)Nc1ccc(-c2c(C#N)c(N)nc(SCc3ccccn3)c2C#N)cc1 [Comparative Compound B, reference compound]
- A1 Agonistic Action (%) (A1 receptor; test compound 10 nM): 20%
- A1 Agonistic Action (%) (A1 receptor; test compound 100 nM): 63%
- A1 Agonistic Action (%) (A1 receptor; test compound 1 μM): 77%
- EC50 [1]: 14.3 nM

SMILES: N#Cc1c(N)nc(SCc2csc(-c3ccc(Cl)cc3)n2)c(C#N)c1-c1ccc(OCCO)cc1 [Comparative Compound A, reference compound]
- A1 Agonistic Action (%) (A1 receptor; test compound 10 nM): 14%
- A1 Agonistic Action (%) (A1 receptor; test compound 100 nM): 55%
- A1 Agonistic Action (%) (A1 receptor; test compound 1 μM): 79%
- EC50 [1]: > 1000 nM

SMILES: CC(=O)Nc1ccc(-c2nc(SCc3cccc(CCC(=O)NCCN(C)C)n3)nc(N)c2C#N)cc1.Cl [Example 61, 3-{6-[4-(4-acetylaminophenyl)-6-amino-5-cyanopyrimidin-2-ylsulfanylmethyl]pyridin-2-yl}-N-(2-dimethylaminoethyl)-propionamide hydrochloride]
- ΔIOP (mmHg) ([2]; 0.03% ophthalmic solution, rabbit, instillation, 0.5 hr after instillation, difference from pre-instillation): −0.5 ± 0.4 mmHg
- ΔIOP (mmHg) ([2]; 0.03% ophthalmic solution, rabbit, instillation, 1 hr after instillation, difference from pre-instillation): −4.2 ± 0.6 mmHg
- ΔIOP (mmHg) ([2]; 0.03% ophthalmic solution, rabbit, instillation, 2 hr after instillation, difference from pre-instillation): −4.5 ± 0.7 mmHg
- ΔIOP (mmHg) ([2]; 0.03% ophthalmic solution, rabbit, instillation, 3 hr after instillation, difference from pre-instillation): −4.8 ± 0.7 mmHg
- ΔIOP (mmHg) ([2]; 0.03% ophthalmic solution, rabbit, instillation, 4 hr after instillation, difference from pre-instillation): −4.4 ± 0.7 mmHg
- ΔIOP (mmHg) ([2]; 0.03% ophthalmic solution, rabbit, instillation, 6 hr after instillation, difference from pre-instillation): −1.2 ± 0.8 mmHg
- EC50 [1]: 3.4 nM

SMILES: CC(=O)Nc1ccc(-c2nc(SCc3cccc(C)n3)nc(N)c2C#N)cc1 [Example 2, N-{4-[6-amino-5-cyano-2-(6-methylpyridin-2-ylmethylsulfanyl)pyrimidin-4-yl]phenyl}acetamide]
- ΔIOP (mmHg) ([2]; 1% suspended ophthalmic preparation, test group, 0.5 hr): 1.1 ± 0.6 mmHg
- ΔIOP (mmHg) ([2]; 1% suspended ophthalmic preparation, test group, 1 hr): −3.1 ± 0.6 mmHg
- ΔIOP (mmHg) ([2]; 1% suspended ophthalmic preparation, test group, 2 hr): −4.2 ± 0.7 mmHg
- ΔIOP (mmHg) ([2]; 1% suspended ophthalmic preparation, test group, 3 hr): −4.0 ± 0.9 mmHg
- ΔIOP (mmHg) ([2]; 1% suspended ophthalmic preparation, test group, 4 hr): −2.0 ± 0.4 mmHg
- ΔIOP (mmHg) ([2]; 1% suspended ophthalmic preparation, test group, 6 hr): 0.4 ± 0.9 mmHg
- EC50 [1]: 11.9 nM

SMILES: CC(=O)Nc1ccc(-c2nc(SCc3cccc(CCC(=O)N4CCC(N5CCCCC5)CC4)n3)nc(N)c2C#N)cc1.Cl [Example 69, N-(4-{6-amino-2-[6-(3-[1,4′]bipiperidinyl-1′-yl-3-oxopropyl)pyridin-2-ylmethylsulfanyl]-5-cyanopyrimidin-4-yl}phenyl)acetamide hydrochloride]
- ΔIOP (mmHg) ([2]; 0.01% ophthalmic solution, test group, 0.5 hr): −1.5 ± 1.0 mmHg
- ΔIOP (mmHg) ([2]; 0.01% ophthalmic solution, test group, 1 hr): −4.9 ± 0.7 mmHg
- ΔIOP (mmHg) ([2]; 0.01% ophthalmic solution, test group, 2 hr): −3.6 ± 0.4 mmHg
- ΔIOP (mmHg) ([2]; 0.01% ophthalmic solution, test group, 3 hr): −3.8 ± 0.7 mmHg
- ΔIOP (mmHg) ([2]; 0.01% ophthalmic solution, test group, 4 hr): −2.6 ± 1.0 mmHg
- ΔIOP (mmHg) ([2]; 0.01% ophthalmic solution, test group, 6 hr): 0.5 ± 0.9 mmHg
- EC50 [1]: 7 nM

SMILES: CC(=O)Nc1ccc(-c2nc(SCc3cccc(CN4CCOCC4)n3)nc(N)c2C#N)cc1 [Example 14, N-{4-[6-amino-5-cyano-2-(6-morpholin-4-ylmethylpyridin-2-ylmethylsulfanyl)pyrimidin-4-yl]phenyl}acetamide]
- ΔIOP (mmHg) ([2]; 0.3% suspended ophthalmic preparation, test group, 0.5 hr): −0.3 ± 1.2 mmHg
- ΔIOP (mmHg) ([2]; 0.3% suspended ophthalmic preparation, test group, 1 hr): −3.9 ± 1.3 mmHg
- ΔIOP (mmHg) ([2]; 0.3% suspended ophthalmic preparation, test group, 2 hr): −4.4 ± 1.0 mmHg
- ΔIOP (mmHg) ([2]; 0.3% suspended ophthalmic preparation, test group, 3 hr): −4.8 ± 1.4 mmHg
- ΔIOP (mmHg) ([2]; 0.3% suspended ophthalmic preparation, test group, 4 hr): −4.3 ± 1.0 mmHg
- ΔIOP (mmHg) ([2]; 0.3% suspended ophthalmic preparation, test group, 6 hr): −1.0 ± 1.0 mmHg
- EC50 [1]: 39.6 nM
